Here are results for 35 compounds from patent US20070010671A1, “Novel quinazoline derivatives and methods of treatment related to the use thereof” (priority 2003, published 2007).

The first test addresses MCH receptor (Homo sapiens, UniProt Q99705). Put plainly: High throughput functional screening FLIPR/FDSS6000: inhibition of MCH-evoked intracellular Ca2+ changes. Format: cell-based. Conditions: class by percent of control at 10^-7 M or IC50. The procedure, abridged:
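Antagonism is measured as inhibition of the intracellular calcium rise triggered by 50 nM MCH in cells bearing a constitutively active, non-endogenous form of the receptor. Cells are dye-loaded with Fluo4-AM and exposed to compound for 3 min at 37° C before agonist addition.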
Regarding `C/C=C/CNC(=S)N[C@H]1CC[C@@H](Nc2nc(N(C)C)c3ccccc3n2)CC1` [compound 327], the class was 3 (Class 3: The value of percent of control at 10^−7 M was more than 60% or the value of IC50 was more than 200 nM.).
For `Cc1cc(Br)ccc1NC(=S)N[C@H]1CC[C@@H](Nc2nc(N(C)C)c3ccccc3n2)CC1` [compound 267], the class is 1 (Class 1: The value of percent of control at 10^−7 M was less than 40% or the value of IC50 was less than 50 nM.).
Regarding `CN(C)c1nc(N[C@H]2CC[C@@H](NC(=S)Nc3cccc4nsnc34)CC2)nc2ccccc12` [compound 398], the class was 3 (Class 3: The value of percent of control at 10^−7 M was more than 60% or the value of IC50 was more than 200 nM.).
As to `CN(C)c1nc(N[C@H]2CC[C@@H](CNC(=S)NC3CCCCCCCCCCC3)CC2)nc2ccccc12` [compound 709, N-cyclododecyl-N′-[(cis-4-{[4-(dimethylamino)quinazolin-2-yl]amino}cyclohexyl)methyl]thiourea], the class is recorded as 2 (Class 2: The value of percent of control at 10^−7 M was from 40% to 60% or the value of IC50 was from 50 nM to 200 nM.).
Still for that read-out and setting: the figure for `Cc1cc(Cl)ccc1NC(=S)NC[C@H]1CC[C@@H](Nc2nc(N(C)C)c3ccccc3n2)CC1` [compound 694] is 3 (Class 3: The value of percent of control at 10^−7 M was more than 60% or the value of IC50 was more than 200 nM.); for `CN(C)c1nc(N[C@H]2CC[C@@H](CNC(=O)Nc3ccc(C(C)(C)C)cc3)CC2)nc2ccccc12` [compound 765] it is 3 (Class 3: The value of percent of control at 10^−7 M was more than 60% or the value of IC50 was more than 200 nM.).
The same measure, in the same setting: the figure for `CN(C)c1nc(N[C@H]2CC[C@@H](NC(=S)NC3CCCCCCCCCCC3)CC2)nc2ccccc12` [compound 285] is 3 (Class 3: The value of percent of control at 10^−7 M was more than 60% or the value of IC50 was more than 200 nM.); for `CN(C)c1nc(N[C@H]2CC[C@@H](NC(=S)Nc3c(Cl)c(Cl)cc(Cl)c3Cl)CC2)nc2ccccc12` [compound 291] it is 3 (Class 3: The value of percent of control at 10^−7 M was more than 60% or the value of IC50 was more than 200 nM.); for `COc1ccc(OC)c(NC(=S)NC[C@H]2CC[C@@H](Nc3nc(N(C)C)c4ccccc4n3)CC2)c1` [compound 636] it is 3 (Class 3: The value of percent of control at 10^−7 M was more than 60% or the value of IC50 was more than 200 nM.).
For the compound `CN(C)c1nc(N[C@H]2CC[C@@H](CNC(=O)NCc3ccccc3Cl)CC2)nc2ccccc12` [compound 490, N-(2-chlorobenzyl)-N′-[(cis-4-{[4-(dimethylamino)quinazolin-2-yl]amino}cyclohexyl)methyl]urea], the class was 1 (Class 1: The value of percent of control at 10^−7 M was less than 40% or the value of IC50 was less than 50 nM.).
Same read-out and setting: the result for `CN(C)c1nc(N[C@H]2CC[C@@H](CNC(=O)Nc3ccccc3[N+](=O)[O-])CC2)nc2ccccc12` [compound 512, N-[(cis-4-{[4-(dimethylamino)quinazolin-2-yl]amino}cyclohexyl)methyl]-N′-(2-nitrophenyl)urea] reads 2 (Class 2: The value of percent of control at 10^−7 M was from 40% to 60% or the value of IC50 was from 50 nM to 200 nM.); that for `CC(NC(=O)NC[C@H]1CC[C@@H](Nc2nc(N(C)C)c3ccccc3n2)CC1)c1cccc2ccccc12` (relative stereo) [compound 461], 3 (Class 3: The value of percent of control at 10^−7 M was more than 60% or the value of IC50 was more than 200 nM.).
On the same count and under the same terms, the result for `CN(C)c1nc(N[C@H]2CC[C@@H](CNC(=S)Nc3ccc(OC(F)(F)F)cc3)CC2)nc2ccccc12` [compound 654] reads 3 (Class 3: The value of percent of control at 10^−7 M was more than 60% or the value of IC50 was more than 200 nM.).
Consider `CN(C)c1nc(N[C@H]2CC[C@@H](NC(=O)Nc3ccc(-c4ccccc4)s3)CC2)nc2ccccc12` [compound 348], for which the class is 3 (Class 3: The value of percent of control at 10^−7 M was more than 60% or the value of IC50 was more than 200 nM.).
The same measure, in the same setting: the figure for `CN(C)c1nc(N[C@H]2CC[C@@H](NC(=S)NCc3ccccc3F)CC2)nc2ccccc12` [compound 300] is 2 (Class 2: The value of percent of control at 10^−7 M was from 40% to 60% or the value of IC50 was from 50 nM to 200 nM.).
On the same count and under the same terms, the result for `Cc1noc(C)c1NC(=O)N[C@H]1CC[C@@H](Nc2nc(N(C)C)c3ccccc3n2)CC1` [compound 353, N-(cis-4-{[4-(dimethylamino)quinazolin-2-yl]amino}cyclohexyl)-N′-(3,5-dimethylisoxazol-4-yl)urea] reads 2 (Class 2: The value of percent of control at 10^−7 M was from 40% to 60% or the value of IC50 was from 50 nM to 200 nM.); that for `CN(C)c1nc(N[C@H]2CC[C@@H](CNC(=S)Nc3ccc(F)c(F)c3F)CC2)nc2ccccc12` [compound 633, N-[(cis-4-{[4-(dimethylamino)quinazolin-2-yl]amino}cyclohexyl)methyl]-N′-(2,3,4-trifluorophenyl)thiourea], 2 (Class 2: The value of percent of control at 10^−7 M was from 40% to 60% or the value of IC50 was from 50 nM to 200 nM.).
On the same count and under the same terms, the result for `CC(NC(=S)NC[C@H]1CC[C@@H](Nc2nc(N(C)C)c3ccccc3n2)CC1)c1ccc(F)cc1` (relative stereo) [compound 697] reads 2 (Class 2: The value of percent of control at 10^−7 M was from 40% to 60% or the value of IC50 was from 50 nM to 200 nM.).

Still in this test, the particulars now being: class by percent of control at 10^-7 M or by IC50; read-out: class.
For the compound `CC(=O)c1cccc(NC(=S)N[C@H]2CC[C@@H](Nc3nc(N(C)C)c4ccccc4n3)CC2)c1` [compound 153], the IC50 is more than 200 nM.
Still for that read-out and setting: the result for `CN(C)c1nc(N[C@H]2CC[C@@H](NC(=O)Nc3cccc(F)c3)CC2)nc2ccccc12` [compound 37] reads more than 200 nM; that for `CN(C)c1nc(N[C@H]2CC[C@@H](CNC(=O)Oc3ccccc3)CC2)nc2ccccc12` [compound 879], more than 200 nM; that for `Cc1ccc(OC(=O)NC[C@H]2CC[C@@H](Nc3nc(N(C)C)c4ccccc4n3)CC2)cc1` [compound 881], more than 200 nM.
On the same count and under the same terms, the figure for `Cc1ccc(Cl)cc1NC(=O)N[C@H]1CC[C@@H](Nc2nc(N(C)C)c3ccccc3n2)CC1` [compound 836] is more than 200 nM; for `CN(C)c1nc(N[C@H]2CC[C@@H](CNC(=S)NC3CC4C=CC3C4)CC2)nc2ccccc12` (relative stereo) [compound 799, N-bicyclo[2.2.1]hept-5-en-2-yl-N′-[(cis-4-{[4-(dimethylamino)quinazolin-2-yl]amino}cyclohexyl)methyl]thiourea] it is 50 to 200 nM.
Same read-out and setting: the result for `CCCCCNC(=O)N[C@H]1CC[C@@H](Nc2nc(N(C)C)c3ccccc3n2)CC1` [compound 54, N-(cis-4-{[4-(dimethylamino)quinazolin-2-yl]amino}cyclohexyl)-N′-pentylurea] reads less than 50 nM.
Consider `CN(C)c1nc(N[C@H]2CC[C@@H](NC(=S)Nc3ccc([N+](=O)[O-])cc3)CC2)nc2ccccc12` [compound 189], for which the IC50 is 50 to 200 nM.
Still for that read-out and setting: the figure for `CCc1cccc(C(C)C)c1NC(=S)N[C@H]1CC[C@@H](Nc2nc(N(C)C)c3ccccc3n2)CC1` [compound 173, N-(cis-4-{[4-(dimethylamino)quinazolin-2-yl]amino}cyclohexyl)-N′-(2-ethyl-6-isoprophylphenyl)thiourea] is less than 50 nM; for `CN(C)c1nc(N[C@H]2CC[C@@H](NC(=O)Nc3cccc(C(F)(F)F)c3)CC2)nc2ccccc12` [compound 56] it is more than 200 nM; for `Cc1ccc(NC(=S)N[C@H]2CC[C@@H](Nc3nc(N(C)C)c4ccccc4n3)CC2)cc1` [compound 197, N-(cis-4-{[4-(dimethylamino)quinazolin-2-yl]amino}cyclohexyl)-N′-(4-methylphenyl)thiourea] it is 50 to 200 nM.
In the case of `Cc1ccc([N+](=O)[O-])cc1NC(=O)N[C@H]1CC[C@@H](Nc2nc(N(C)C)c3ccccc3n2)CC1` [compound 109, N-(cis-4-{[4-(dimethylamino)quinazolin-2-yl]amino}cyclohexyl)-N′-(2-methyl-5-nitrophenyl)urea], the IC50 was less than 50 nM.

Still in this test, the particulars now being: class by percent of control at 10^−7 M or by IC50; read-out: class.
As to `CN(C)c1nc(N[C@H]2CC[C@@H](NC(=O)c3cccc(NC(=O)C4CCCC4)c3)CC2)nc2ccccc12` [Example 1203, 3-[(cyclopentylcarbonyl)amino]-N-(cis-4-{[4-(dimethylamino)quinazolin-2-yl]amino}cyclohexyl)benzamide], the IC50 was less than 50 nM.
Still for that read-out and setting: the figure for `CN(C)c1nc(N[C@H]2CC[C@@H](CNC(=O)C(O)c3ccc(F)c(F)c3)CC2)nc2ccccc12` (relative stereo) [Example 1095, 2-(3,4-difluorophenyl)-N-[(cis-4-{[4-(dimethylamino)quinazolin-2-yl]amino}cyclohexyl)methyl]-2-hydroxyacetamide] is more than 200 nM.
Consider `CN(C)c1nc(N[C@H]2CC[C@@H](CNC(=O)C(O)c3c(F)cccc3F)CC2)nc2ccccc12` (relative stereo) [Example 1092, 2-(2,6-difluorophenyl)-N-[(cis-4-{[4-(dimethylamino)quinazolin-2-yl]amino}cyclohexyl)methyl]-2-hydroxyacetamide], for which the IC50 is more than 200 nM.
`CN(C)c1nc(N[C@H]2CC[C@@H](C(=O)NCc3ccccc3F)CC2)nc2ccccc12` [Example 1151, cis-4-{[4-(dimethylamino)quinazolin-2-yl]amino}-N-(2-fluorobenzyl)cyclohexanecarboxamide]: the IC50 was less than 50 nM.
As to `CN(C)c1nc(N[C@H]2CC[C@@H](C(=O)NCc3c(F)ccc(F)c3F)CC2)nc2ccccc12` [Example 1172, cis-4-{[4-(dimethylamino)quinazolin-2-yl]amino}-N-(2,3,6-trifluorobenzy)cyclohexanecarboxamide], the IC50 is less than 50 nM.
